The text below walks through data of US10006020B2 (LESAFFRE ET COMPAGNIE, priority 2008, dated 2018).

“Also recorded” adds a separate entry of the source.

The target of data set [1] is T1, Clostridium phytofermentans xylose isomerase, codon-optimized form (plasmid p426H7-opt.XI-Clos; protein SEQ ID NO: 1, ORF SEQ ID NO: 3) (Lachnoclostridium phytofermentans, UniProt A9KN98). Nature of the data set: Xylose isomerase activity, enzyme kinetics with xylose (raw extract, sorbitol dehydrogenase coupled, NADH 340 nm), codon-optimized XI gene. As to conditions: table 3; xylose 6.25-500 mM, 30° C., pH 7.5, raw extract. The format is biochemical. As for the experimental part: (§1) The strain CEN.PK2-1C transformed with the plasmid p426H7-XI-Clos and p426H7-opt.XI-Clos, respectively, was grown over night in synthetic complete medium with 2% glucose and no uracil. Raw extracts were prepared and quantitative enzyme tests were performed. A representative result is shown. The values indicated in table 3 are average values from at least 3 independent measurements.
(§2) 50 ml of cultures of yeast cells were grown to the exponential phase in synthetic minimal medium with 2% glucose. The cells were harvested, washed twice in Tris-HCl buffer (pH 7.5) and disrupted by means of glass beads (Ø=[…]) for 8 min on a Vibrax (Janke & Kunkel, Vibrax-VBR) at 4° C. Cell debris was removed by centrifugation for 10 min at 13,000 rpm. […]
(§3) Recombinant yeast cells containing the empty vector p426HXT7-6HIS served as a comparison. […] The acceptance of NADH as a measured variable was determined spectrophotometrically at a wave length of 340 nm. […]
(§4) The strain CEN.PK2-1C transformed with the plasmid p426H7-XI-Clos and p426H7-opt.XI-Clos, respectively, was grown over night in synthetic complete medium with 2% glucose and no uracil. Raw extracts were prepared and quantitative enzyme tests were performed.

Data set [2] deals with Clostridium phytofermentans xylose isomerase, native form (plasmid p426H7-XI-Clos; protein SEQ ID NO: 1, ORF SEQ ID NO: 2) (Lachnoclostridium phytofermentans, UniProt A9KN98). Nature of the data set: Xylose isomerase activity, enzyme kinetics with xylose (raw extract, sorbitol dehydrogenase coupled, NADH 340 nm), native XI gene. It is filed as biochemical. As to conditions: xylose 6.25-500 mM, 30° C. The method, then:
as §1, §2, §3, §4

The target in data set [3] is T1, Clostridium phytofermentans xylose isomerase, codon-optimized form (plasmid p426H7-opt.XI-Clos; protein SEQ ID NO: 1, ORF SEQ ID NO: 3). Nature of the data set: Xylitol inhibition of the xylose isomerase, codon-optimized XI gene. The format is biochemical. The method, then: (§5) 50 ml of cultures of yeast cells were grown to the exponential phase in synthetic minimal medium with 2% glucose. The cells were harvested, washed twice in Tris-HCl buffer (pH 7.5) and disrupted by means of glass beads (Ø=[…]) for 8 min on a Vibrax (Janke & Kunkel, Vibrax-VBR) at 4° C. Cell debris was removed by centrifugation for 10 min at 13,000 rpm. Subsequently, the supernatant was collected and filled up to 2 ml with cold Tris-HCl buffer (pH 7.5) and used as a raw extract for the protein determination and for the measurement of the enzyme activities or the xylitol inhibition.
(§6) Recombinant yeast cells with the vector p426H7-opt.XI-Piro or the vector p426HXT7-6HIS, respectively, served as a comparison. […] The acceptance of NADH as a measured variable was determined spectrophotometrically at a wave length of 340 nm. The reaction was started by adding xylose. […]
(§7) K was determined via the equation Km′=Km′=Km*(1+i/Ki), i being the xylitol concentration used and Km′ being the apparent Km value at the corresponding xylitol concentration.
(§8) The strain CEN.PK2-1C transformed with the plasmid p426H7-opt.XI-Clos and p426H7-opt.XI-Piro, respectively, was grown over night in synthetic complete medium with 2% glucose and no uracil. Raw extracts were prepared and quantitative enzyme tests with constant xylitol concentrations of 10-100 mM were performed.

The subject of data set [4] is Piromyces sp. E2 xylose isomerase. As to conditions: result in words, prior art; cited from earlier work.
Data set [5] has as its target T2, Clostridium phytofermentans xylose isomerase (SEQ ID NO: 1) (Lachnoclostridium phytofermentans, UniProt A9KN98).
T2 construct: raw extract
In words: Xylitol inhibition of the xylose isomerase (method names p426H7-XI-Clos). The format is biochemical.

Data set [6] addresses Piromyces sp. E2 xylose isomerase, codon-optimized (plasmid p426H7-opt.XI-Piro) (Piromyces sp. E2, UniProt A0ACD6B9F5). Nature of the data set: Xylitol inhibition of the xylose isomerase, comparison enzyme. The format is biochemical.
Substrate in data set [7]: OC1OC[C@@H](O)[C@H](O)[C@H]1O
In words: purified protein, by the assay type. As to conditions: other: xylose 6.25-500 mM, 30° C., pH 7.5, raw extract of CEN.PK2-1C.

The test system of a further data set is yeast strain MKY09. Nature of the data set: Growth test on agar plates with SC medium and 2% xylose as only carbon source. As to conditions: SC medium. The format is cell-based, S. cerevisiae. From the text: Growth tests of recombinant S. cerevisiae strains, which include the bacterial D-xylose metabolism with the xylose isomerase from C. phytofermentans. […] The empty vector p426HXT7-6HIS (5A) served as the negative control.
In the yeast strain CEN.PK2-1C, all the genes of the non-oxidative pentose phosphate pathway as well as the xylulokinase (XKS1) and GAL2 were overexpressed. To this end, the endogenous promoters were replaced with the truncated HXT7 promoter.
The obtained PCR products were together with the vector p426HXT7-6HIS linearized with EcoRI/BamHI transformed in yeast and cloned via in vivo recombination into the plasmid between the HXT7 promoter or CYC1 terminator, respectively (FIG. 4). The sequence of the plasmids obtained was verified by means of restriction analysis. […] However, it was not possible to amplify the desired PCR product with the xylose isomerase from the organisms Streptomyces diastaticus and Leifsonia xyli. Both xylose isomerases thus could not be tested on functionality in yeast.
To this end, the codon-optimized XI-ORF was amplified with primers and cloned into the linearized vector p426HXT7-6HIS (see “Execution of the screen”). The sequence of the obtained plasmid p426H7-opt.XI-Clos was verified by means of restriction analysis. To test the functionality of the codon-optimized isomerase, the plasmid p426H7-opt.XI-Clos was transformed in the strain MKY09. […]

Data set [8] has as its system xylose isomerase from C. phytofermentans. Nature of the data set: Measurement of the xylitol inhibition of the xylose isomerase (raw extracts). It is filed as biochemical, Clostridium phytofermentans. As to conditions: from the determined Ki values. The method, then: as §5, §6, §7, §8

Piromyces sp. E2 xylose isomerase, codon-optimized (plasmid p426H7-opt.XI-Piro), sequence (A0ACD6B9F5 1-437): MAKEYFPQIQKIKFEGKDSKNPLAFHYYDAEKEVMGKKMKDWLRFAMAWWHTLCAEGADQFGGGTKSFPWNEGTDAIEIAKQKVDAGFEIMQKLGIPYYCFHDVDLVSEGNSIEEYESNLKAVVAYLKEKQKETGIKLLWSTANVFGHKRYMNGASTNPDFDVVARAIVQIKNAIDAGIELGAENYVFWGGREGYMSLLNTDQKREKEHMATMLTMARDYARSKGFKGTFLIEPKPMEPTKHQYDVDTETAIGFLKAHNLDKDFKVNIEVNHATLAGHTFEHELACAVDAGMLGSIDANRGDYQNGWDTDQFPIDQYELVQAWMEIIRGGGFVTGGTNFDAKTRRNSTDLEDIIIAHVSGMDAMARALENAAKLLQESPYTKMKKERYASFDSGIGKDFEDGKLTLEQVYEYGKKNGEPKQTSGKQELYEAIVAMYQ

For `OC1OC[C@@H](O)[C@H](O)[C@H]1O` (some centres unmarked) [xylose], the Vmax in data set [1] is 0.0344 μmol/min^−1 protein^−1) mg; in data set [2] (table 3, pH 7.5, raw extract) it was 0.0076 μmol/min^−1 protein^−1) mg. Moreover, the Michaelis-Menten constant (Km) – broadly, the substrate concentration at which the rate is half of its maximum – in data set [2] (pH 7.5, raw extract of CEN.PK2-1C) came out at 61.8 ± 3.4 mM.

As to `OC[C@@H](O)[C@H](O)[C@@H](O)CO` [xylitol], the inhibition constant (Ki) (usually the equilibrium dissociation constant of an inhibitor or competing ligand from its target) in data set [3] came out at 14.5 ± 1.08 mM; in data set [5], 14.2 ± 1.48 mM; in [6], 4.67 ± 1.77 mM. Also, the inhibition by xylitol result in [4] is “strongly inhibited”. For the same molecule, the xylitol inhibition result in [5] (result in words) is given as “competitive inhibition; also recorded: significantly less inhibited by xylitol than the xylose isomerase from Piromyces sp.E2; also recorded: only slightly inhibited”.

B1: Clostridium phytofermentans xylose isomerase, native form (plasmid p426H7-XI-Clos; protein SEQ ID NO: 1, ORF SEQ ID NO: 2) (Lachnoclostridium phytofermentans … (protein)
chain: MKNYFPNVPEVKYEGPNSTNPFAFKYYDANKVVAGKTMKEHCRFALSWWHTLCAGGADPFGVTTMDRTYGNITDPMELAKAKVDAGFELMTKLGIEFFCFHDADIAPEGDTFEESKKNLFEIVDYIKEKMDQTGIKLLWGTANNFSHPRFMHGASTSCNADVFAYAAAKIKNALDATIKLGGKGYVFWGGREGYETLLNTDLGLELDNMARLMKMAVEYGRANGFDGDFYIEPKPKEPTKHQYDFDTATVLAFLRKYGLEKDFKMNIEANHATLAGHTFEHELAMARVNGAFGSVDANQGDPNLGWDTDQFPTDVHSATLAMLEVLKAGGFTNGGLNFDAKVRRGSFEFDDIAYGYIAGMDTFALGLIKAAEIIDDGRIAKFVDDRYASYKTGIGKAIVDGTTSLEELEQYVLTHSEPVMQSGRQEVLETIVNNILFR
As to B1, in data set [7], the Michaelis-Menten constant (Km) worked out at 61.85 ± 3.41 mM and the Vmax stood at 0.0076 μmol/min^−1 mg protein^−1.

B2: Clostridium phytofermentans xylose isomerase, codon-optimized form (plasmid p426H7-opt.XI-Clos; protein SEQ ID NO: 1, ORF SEQ ID NO: 3) (Lachnoclostridium … (protein)
chain: MKNYFPNVPEVKYEGPNSTNPFAFKYYDANKVVAGKTMKEHCRFALSWWHTLCAGGADPFGVTTMDRTYGNITDPMELAKAKVDAGFELMTKLGIEFFCFHDADIAPEGDTFEESKKNLFEIVDYIKEKMDQTGIKLLWGTANNFSHPRFMHGASTSCNADVFAYAAAKIKNALDATIKLGGKGYVFWGGREGYETLLNTDLGLELDNMARLMKMAVEYGRANGFDGDFYIEPKPKEPTKHQYDFDTATVLAFLRKYGLEKDFKMNIEANHATLAGHTFEHELAMARVNGAFGSVDANQGDPNLGWDTDQFPTDVHSATLAMLEVLKAGGFTNGGLNFDAKVRRGSFEFDDIAYGYIAGMDTFALGLIKAAEIIDDGRIAKFVDDRYASYKTGIGKAIVDGTTSLEELEQYVLTHSEPVMQSGRQEVLETIVNNILFR
Turning to B2, in [7], the Km is listed as 66.01 ± 1^ mM and the Vmax is reported as 0.0344 μmol/min^−1 mg protein^−1.

B3: xylose isomerase from C. phytofermentans: prokaryotic xylose isomerase of Clostridium phytofermentans, protein SEQ ID NO: 1; gene form not specified at the place (protein)
chain: MKNYFPNVPEVKYEGPNSTNPFAFKYYDANKVVAGKTMKEHCRFALSWWHTLCAGGADPFGVTTMDRTYGNITDPMELAKAKVDAGFELMTKLGIEFFCFHDADIAPEGDTFEESKKNLFEIVDYIKEKMDQTGIKLLWGTANNFSHPRFMHGASTSCNADVFAYAAAKIKNALDATIKLGGKGYVFWGGREGYETLLNTDLGLELDNMARLMKMAVEYGRANGFDGDFYIEPKPKEPTKHQYDFDTATVLAFLRKYGLEKDFKMNIEANHATLAGHTFEHELAMARVNGAFGSVDANQGDPNLGWDTDQFPTDVHSATLAMLEVLKAGGFTNGGLNFDAKVRRGSFEFDDIAYGYIAGMDTFALGLIKAAEIIDDGRIAKFVDDRYASYKTGIGKAIVDGTTSLEELEQYVLTHSEPVMQSGRQEVLETIVNNILFR
modifications: Clostridium phytofermentans
notes: gene form not specified at the place
B3: the “growth on plates containing xylose” value in the data set on yeast strain MKY09 is recorded as “good growth”. The “inhibition by xylitol compared with the xylose isomerase from Piromyces sp.E2” value in data set [8] is on record as “significantly less inhibited by xylitol”.
